Measurements reported in patent US10047113B2, “Feruloyl-CoA:monolignol transferase” (Wisconsin Alumni Research Foundation (WARF), priority 2010, dated 2018).

Key:
[1] = test system: feruloyl-CoA:monolignol transferase (FMT); experiment: Feruloyl-CoA:monolignol transferase (FMT) enzymatic assay, UPLC detection of product; format: biochemical, Angelica sinensis; details: purified recombinant enzyme; for product formation from acyl-CoA substrate: coniferyl alcohol as acceptor, FIGS. 2, 6, 7; for FMT enzyme activity with monolignol as substrate: feruloyl-CoA as acyl donor, FIGS. 2, 4, 5
Description: The feruloyl-CoA, p-coumaroyl-CoA, and caffeoyl-CoA substrates used in the FMT assay were enzymatically synthesized using the tobacco 4-coumarate-CoA-ligase (4CL) with a c-terminal HIS tag in pCRT7/CT TOPO, provided by Eran Pichersky. Following a method modified from Beuerle and Pichersky (Anal. Biochem. 302(2): 305-12 (2001)) 3.3 mg of ferulic acid, coumaric acid or caffeic acid, 2 mg coenzyme A, and 6.9 mg ATP were added to 50 mM Tris-hydrochloride pH 8 and 2.5 mM magnesium chloride in a final volume of 10 ml. The reaction was started by adding 0.25 mg 4CL, protein purified as described by the method of Beurerle and Pichershy. After a five-hour incubation at room temperature, additional 6.9 mg ATP, 2 mg coenzyme A, and 0.25 mg purified 4CL were added and the reaction was incubated overnight. The CoA esters were purified on an SPE cartridge as described in Beuerle and Pichersky (2001).
(§1) The FMT activity assay contained 100 mM MOPS pH 6.8, 1 mM dithiothreitol (DTT), 1 mM feruloyl-CoA, 1 mM coniferyl alcohol, 3.9 μg of purified FMT protein and deionized water to a volume of 50 μL. After a 30-minute incubation, 1 μL of 10 M hydrochloric acid was added to stop the reaction. Because the product synthesized in the reaction, coniferyl ferulate (CAFA), is insoluble, 50 μL of methanol was added to solubilize the CAFA. Prior to UPLC, protein and insoluble material were removed by filtering through an Amicon Ultracel 10K membrane filter (Millipore). The flow-through was analyzed using an Acquity Ultra Performance LC with an Acquity UPLC BEH C18 1.7 μm 2.1×100 mm column and the Acquity Console and Empower 2 Software, all from Waters Corporation. The solvents used in this method were solvent A, 0.1% trifluoroacetic acid, and solvent B, 100% acetonitrile. Samples were analyzed using the following gradient conditions, 13% B, for 5 minutes, 1 minute linear gradient to 42% B, held for 4 minutes, 1 minute linear gradient to 100% B, held for 1 minutes and 3 minutes at 13% B with a flow rate of 0.3 ml/minute. This method was then used to analyze a 10 μL injection of each assay reaction; standards for each of the substrates along with chemically synthesized CAFA were used to determine retention times for each compound.
Purified recombinant enzyme was assayed for FMT activity using a reaction mixture containing 2 mM coniferyl alcohol, […], 100 mM HEPES pH 7.4 and 1 mM DTT. The second most abundant BAHD acyltransferase gene when incubated with Coniferyl alcohol and feruloyl-CoA produced a compound with the retention time of authentic coniferyl ferulate (CAFA) (FIG. 2). […] The addition of methanol to 50% after stopping the enzyme with acid was required to analyze the product by UPLC. The insolubility of the product made partial purification easy as the product was separated from the substrates by centrifugation.
This partial purified product was analyzed by NMR. The identity of the product as CAFA was confirmed by ^1H-NMR (FIG. 3). The enzyme was tested with p-coumaryl alcohol (FIG. 4) and sinapyl alcohol (FIG. 5) in addition to coniferyl alcohol (FIG. 2). The enzyme is active with all three monolignols, i.e., p-coumaryl alcohol, coniferyl alcohol and sinapyl alcohol. The enzyme was tested with p-coumaroyl-CoA (FIG. 6) and caffeoyl-CoA (FIG. 7) as well as feruloyl-CoA (FIG. 2).

[2] = Solubility of the FMT reaction product; format: physicochemical
Description: as §1, with “compound. […]” for “compound.”

SMILES	product formation from acyl-CoA substrate [1]	FMT enzyme activity with monolignol as substrate [1]	other results
CC(C)(COP(=O)(O)OP(=O)(O)OC[C@H]1O[C@@H](n2cnc3c(N)ncnc32)[C@H](O)[C@@H]1OP(=O)(O)O)[C@@H](O)C(=O)NCCC(=O)NCCSC(=O)/C=C/c1ccc(O)c(O)c1 [caffeoyl-CoA]	very little product is produced		
COc1cc(/C=C/CO)ccc1O [coniferyl alcohol]		active	
COc1cc(/C=C/COC(=O)/C=C/c2ccc(O)c(OC)c2)ccc1O [coniferyl ferulate]			solubility in assay reaction mixture ([2]; FMT activity assay, 100 mM MOPS pH 6.8, methanol added to solubilize): insoluble; solubility in water ([2]; product of enzyme reaction, methanol to 50% needed for UPLC): mostly insoluble in water
COc1cc(/C=C/C(=O)SCCNC(=O)CCNC(=O)[C@H](O)C(C)(C)COP(=O)(O)OP(=O)(O)OC[C@H]2O[C@@H](n3cnc4c(N)ncnc43)[C@H](O)[C@@H]2OP(=O)(O)O)ccc1O [feruloyl-CoA]	substantial product is formed		
CC(C)(COP(=O)(O)OP(=O)(O)OC[C@H]1O[C@@H](n2cnc3c(N)ncnc32)[C@H](O)[C@@H]1OP(=O)(O)O)[C@@H](O)C(=O)NCCC(=O)NCCSC(=O)/C=C/c1ccc(O)cc1 [p-coumaroyl-CoA]	very little product is produced		
OC/C=C/c1ccc(O)cc1 [p-coumaryl alcohol]		active	
COc1cc(/C=C/CO)cc(OC)c1O [sinapyl alcohol]		active	
